Tests used:
PKD1 = molecular target: T1, PKD1 (Homo sapiens, UniProt Q15139); assay: biochemical; set-up: Kinase inhibition by mobility shift assay (Caliper)
T1 construct: gene PRKD1

p70S6K = molecular target: T2, p70S6K (Homo sapiens, UniProt P23443); assay: 60-kinase selectivity panel, % inhibition at […]; assay type: biochemical
T2 construct: gene RPS6KB1

p38γ (SAPK3) [1] = molecular target: T3, p38γ (SAPK3) (Homo sapiens, UniProt P53778); assay: biochemical; set-up: Kinase inhibition by mobility shift assay (Caliper)
T3 construct: gene MAPK12

p38γ (SAPK3) [2] = molecular target: T3, p38γ (SAPK3); assay: mobility shift assay (Caliper); confirmed in 60-kinase panel, % inhibition at […]; assay type: biochemical
mTOR = mTOR (Homo sapiens, UniProt P42345); assay: 60-kinase selectivity panel, % inhibition at […]; assay type: biochemical
p38α = molecular target: T4, p38α (Homo sapiens, UniProt Q16539); assay: biochemical; set-up: Kinase inhibition by mobility shift assay (Caliper)
T4 construct: gene MAPK14

p38δ = molecular target: T5, p38δ (Homo sapiens, UniProt O15264); assay: biochemical; set-up: Kinase inhibition by mobility shift assay (Caliper)
T5 construct: gene MAPK13

CDK5/p25(h) = molecular target: T6, CDK5/p25(h) (Homo sapiens, UniProt Q00535); assay: biochemical; set-up: Eurofins KinaseProfiler panel of 60 kinases, per cent inhibition
T6 construct: p25
Source text: (§1) A more detailed account of the discovery, chemistry and biochemical properties of this novel class of selective p38δ inhibitors will be given elsewhere.

GSK3β(h) = molecular target: T7, GSK3β(h) (Homo sapiens, UniProt P49841); assay: biochemical; set-up: Eurofins KinaseProfiler panel of 60 kinases, per cent inhibition
T7 construct: gene GSK3B
Source text: as §1

Syk(h) = Syk(h) (Homo sapiens, UniProt P43405); assay: biochemical; set-up: Eurofins KinaseProfiler panel of 60 kinases, per cent inhibition
Source text: as §1

Met(h) = Met(h) (Homo sapiens, UniProt P08581); assay: biochemical; set-up: Eurofins KinaseProfiler panel of 60 kinases, per cent inhibition
Source text: as §1

JAK3(h) = JAK3(h) (Homo sapiens, UniProt P52333); assay: biochemical; set-up: Eurofins KinaseProfiler panel of 60 kinases, per cent inhibition
Source text: as §1

Hck(h) activated = Hck(h) activated (Homo sapiens, UniProt P08631); assay: biochemical; set-up: Eurofins KinaseProfiler panel of 60 kinases, per cent inhibition
Source text: as §1

cSRC(h) = molecular target: T8, cSRC(h) (Homo sapiens, UniProt P12931); assay: biochemical; set-up: Eurofins KinaseProfiler panel of 60 kinases, per cent inhibition
T8 construct: gene SRC
Source text: as §1

BTK(h) = BTK(h) (Homo sapiens, UniProt Q06187); assay: biochemical; set-up: Eurofins KinaseProfiler panel of 60 kinases, per cent inhibition
Source text: as §1

AMPKα2(h) = molecular target: T9, AMPKα2(h) (Homo sapiens, UniProt P54646); assay: biochemical; set-up: Eurofins KinaseProfiler panel of 60 kinases, per cent inhibition
T9 construct: gene PRKAA2
Source text: as §1

Pim-1(h) = molecular target: T10, Pim-1(h) (Homo sapiens, UniProt P11309); assay: biochemical; set-up: Eurofins KinaseProfiler panel of 60 kinases, per cent inhibition
T10 construct: gene PIM1
Source text: as §1

Rsk1(h) = molecular target: T11, Rsk1(h) (Homo sapiens, UniProt Q15418); assay: biochemical; set-up: Eurofins KinaseProfiler panel of 60 kinases, per cent inhibition
T11 construct: gene RPS6KA1
Source text: as §1

EphB4(h) = EphB4(h) (Homo sapiens, UniProt P54760); assay: biochemical; set-up: Eurofins KinaseProfiler panel of 60 kinases, per cent inhibition
Source text: as §1

T8 sequence (P12931 whole entry): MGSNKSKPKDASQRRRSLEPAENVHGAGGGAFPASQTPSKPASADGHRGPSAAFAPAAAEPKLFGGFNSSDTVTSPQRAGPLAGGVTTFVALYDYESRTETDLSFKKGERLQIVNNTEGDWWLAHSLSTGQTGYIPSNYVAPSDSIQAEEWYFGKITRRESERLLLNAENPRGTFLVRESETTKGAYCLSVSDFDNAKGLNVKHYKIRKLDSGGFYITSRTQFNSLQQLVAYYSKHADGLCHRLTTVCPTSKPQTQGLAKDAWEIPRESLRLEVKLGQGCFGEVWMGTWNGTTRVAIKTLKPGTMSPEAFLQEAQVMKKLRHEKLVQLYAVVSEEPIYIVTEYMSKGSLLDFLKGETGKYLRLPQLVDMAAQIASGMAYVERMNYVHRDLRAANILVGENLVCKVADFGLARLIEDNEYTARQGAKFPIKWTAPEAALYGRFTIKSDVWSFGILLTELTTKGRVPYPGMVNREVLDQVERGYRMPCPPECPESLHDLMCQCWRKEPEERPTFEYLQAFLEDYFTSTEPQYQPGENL
T11 sequence (Q15418 whole entry): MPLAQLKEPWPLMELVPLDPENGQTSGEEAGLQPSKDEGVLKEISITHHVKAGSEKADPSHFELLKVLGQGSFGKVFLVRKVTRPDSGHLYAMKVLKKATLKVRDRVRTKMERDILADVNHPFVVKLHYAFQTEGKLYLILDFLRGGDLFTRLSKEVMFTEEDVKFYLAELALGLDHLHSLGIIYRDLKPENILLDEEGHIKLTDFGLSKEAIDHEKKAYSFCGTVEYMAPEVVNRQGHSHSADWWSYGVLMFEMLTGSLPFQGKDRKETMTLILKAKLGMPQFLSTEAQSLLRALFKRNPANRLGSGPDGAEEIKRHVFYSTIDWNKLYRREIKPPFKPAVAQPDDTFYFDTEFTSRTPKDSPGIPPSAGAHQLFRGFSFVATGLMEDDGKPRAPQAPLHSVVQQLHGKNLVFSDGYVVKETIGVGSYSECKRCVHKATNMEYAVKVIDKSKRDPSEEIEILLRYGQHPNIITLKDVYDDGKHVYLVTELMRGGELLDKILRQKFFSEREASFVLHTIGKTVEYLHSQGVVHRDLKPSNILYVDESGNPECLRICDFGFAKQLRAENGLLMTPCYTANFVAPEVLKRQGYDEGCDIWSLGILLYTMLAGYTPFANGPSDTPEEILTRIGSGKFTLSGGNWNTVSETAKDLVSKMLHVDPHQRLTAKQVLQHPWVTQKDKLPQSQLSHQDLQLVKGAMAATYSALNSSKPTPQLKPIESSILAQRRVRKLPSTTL
Chain of EphB4(h) (P54760 whole entry): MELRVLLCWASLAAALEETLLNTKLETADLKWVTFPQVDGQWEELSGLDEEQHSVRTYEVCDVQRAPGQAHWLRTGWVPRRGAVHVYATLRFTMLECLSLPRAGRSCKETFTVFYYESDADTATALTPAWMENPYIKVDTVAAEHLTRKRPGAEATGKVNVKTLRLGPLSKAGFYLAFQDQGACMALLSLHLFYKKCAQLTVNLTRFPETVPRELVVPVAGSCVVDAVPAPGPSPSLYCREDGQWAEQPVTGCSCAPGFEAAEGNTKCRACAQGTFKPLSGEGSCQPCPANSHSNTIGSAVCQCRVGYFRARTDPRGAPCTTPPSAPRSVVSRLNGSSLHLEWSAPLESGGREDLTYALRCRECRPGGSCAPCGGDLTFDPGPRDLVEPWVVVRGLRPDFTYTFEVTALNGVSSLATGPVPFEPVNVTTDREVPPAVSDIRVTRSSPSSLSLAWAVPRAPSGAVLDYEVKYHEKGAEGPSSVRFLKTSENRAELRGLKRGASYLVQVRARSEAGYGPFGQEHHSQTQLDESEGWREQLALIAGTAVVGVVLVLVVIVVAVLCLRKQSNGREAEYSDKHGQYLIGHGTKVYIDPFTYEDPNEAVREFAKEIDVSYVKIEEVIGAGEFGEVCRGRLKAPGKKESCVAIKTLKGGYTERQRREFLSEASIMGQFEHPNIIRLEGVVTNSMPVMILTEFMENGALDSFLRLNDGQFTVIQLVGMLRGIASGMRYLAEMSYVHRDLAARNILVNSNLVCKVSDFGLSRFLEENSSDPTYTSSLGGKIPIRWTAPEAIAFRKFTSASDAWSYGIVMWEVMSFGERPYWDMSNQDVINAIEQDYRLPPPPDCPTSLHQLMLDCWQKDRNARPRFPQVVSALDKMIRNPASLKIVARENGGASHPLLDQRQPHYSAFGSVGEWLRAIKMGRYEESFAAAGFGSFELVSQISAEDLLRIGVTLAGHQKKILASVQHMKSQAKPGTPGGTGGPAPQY
T10 sequence (P11309 whole entry): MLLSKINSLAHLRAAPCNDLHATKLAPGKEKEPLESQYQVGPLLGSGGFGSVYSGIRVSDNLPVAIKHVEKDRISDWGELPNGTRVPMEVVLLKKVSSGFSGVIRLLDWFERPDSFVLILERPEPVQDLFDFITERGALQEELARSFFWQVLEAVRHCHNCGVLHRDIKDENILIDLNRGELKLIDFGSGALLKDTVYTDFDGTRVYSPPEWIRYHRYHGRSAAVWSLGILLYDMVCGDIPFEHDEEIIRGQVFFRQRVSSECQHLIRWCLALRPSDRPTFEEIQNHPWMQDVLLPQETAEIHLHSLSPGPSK
Chain of Met(h) (P08581 whole entry): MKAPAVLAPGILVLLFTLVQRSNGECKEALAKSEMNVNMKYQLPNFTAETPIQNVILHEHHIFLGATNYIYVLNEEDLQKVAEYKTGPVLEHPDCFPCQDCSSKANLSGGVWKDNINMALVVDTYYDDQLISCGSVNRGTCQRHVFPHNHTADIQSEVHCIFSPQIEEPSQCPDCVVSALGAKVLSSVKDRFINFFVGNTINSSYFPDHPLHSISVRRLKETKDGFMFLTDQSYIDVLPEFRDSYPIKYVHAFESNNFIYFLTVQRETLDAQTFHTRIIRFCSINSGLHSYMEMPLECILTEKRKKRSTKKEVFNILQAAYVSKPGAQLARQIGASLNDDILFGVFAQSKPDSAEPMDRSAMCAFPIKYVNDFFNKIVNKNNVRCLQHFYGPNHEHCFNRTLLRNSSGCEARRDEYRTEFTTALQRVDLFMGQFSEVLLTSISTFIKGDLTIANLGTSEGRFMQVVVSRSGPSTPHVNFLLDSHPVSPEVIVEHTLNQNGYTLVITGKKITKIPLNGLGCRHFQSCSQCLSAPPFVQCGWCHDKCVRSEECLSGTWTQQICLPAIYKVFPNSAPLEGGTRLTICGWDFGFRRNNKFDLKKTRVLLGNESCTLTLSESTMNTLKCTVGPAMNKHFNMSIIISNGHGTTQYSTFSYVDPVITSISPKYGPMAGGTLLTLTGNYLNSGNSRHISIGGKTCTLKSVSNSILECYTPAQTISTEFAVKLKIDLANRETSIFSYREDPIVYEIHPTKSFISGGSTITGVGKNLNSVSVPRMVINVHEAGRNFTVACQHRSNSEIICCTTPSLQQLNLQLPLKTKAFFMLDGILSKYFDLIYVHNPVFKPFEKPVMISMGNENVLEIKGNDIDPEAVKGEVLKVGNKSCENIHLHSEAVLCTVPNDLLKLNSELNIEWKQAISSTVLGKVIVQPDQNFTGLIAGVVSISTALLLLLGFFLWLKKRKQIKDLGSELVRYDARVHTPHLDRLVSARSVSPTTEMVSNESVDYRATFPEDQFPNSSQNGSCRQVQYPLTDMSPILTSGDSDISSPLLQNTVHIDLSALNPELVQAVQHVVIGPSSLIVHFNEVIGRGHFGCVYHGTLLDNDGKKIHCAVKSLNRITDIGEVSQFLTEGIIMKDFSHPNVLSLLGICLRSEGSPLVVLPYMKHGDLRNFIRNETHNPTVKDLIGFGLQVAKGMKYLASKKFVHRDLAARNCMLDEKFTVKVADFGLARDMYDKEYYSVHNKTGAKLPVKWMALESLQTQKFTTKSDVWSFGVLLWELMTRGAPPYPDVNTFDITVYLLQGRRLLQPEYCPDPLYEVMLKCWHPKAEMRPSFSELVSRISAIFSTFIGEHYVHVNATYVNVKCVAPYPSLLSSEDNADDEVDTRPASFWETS
Chain of BTK(h) (Q06187 whole entry): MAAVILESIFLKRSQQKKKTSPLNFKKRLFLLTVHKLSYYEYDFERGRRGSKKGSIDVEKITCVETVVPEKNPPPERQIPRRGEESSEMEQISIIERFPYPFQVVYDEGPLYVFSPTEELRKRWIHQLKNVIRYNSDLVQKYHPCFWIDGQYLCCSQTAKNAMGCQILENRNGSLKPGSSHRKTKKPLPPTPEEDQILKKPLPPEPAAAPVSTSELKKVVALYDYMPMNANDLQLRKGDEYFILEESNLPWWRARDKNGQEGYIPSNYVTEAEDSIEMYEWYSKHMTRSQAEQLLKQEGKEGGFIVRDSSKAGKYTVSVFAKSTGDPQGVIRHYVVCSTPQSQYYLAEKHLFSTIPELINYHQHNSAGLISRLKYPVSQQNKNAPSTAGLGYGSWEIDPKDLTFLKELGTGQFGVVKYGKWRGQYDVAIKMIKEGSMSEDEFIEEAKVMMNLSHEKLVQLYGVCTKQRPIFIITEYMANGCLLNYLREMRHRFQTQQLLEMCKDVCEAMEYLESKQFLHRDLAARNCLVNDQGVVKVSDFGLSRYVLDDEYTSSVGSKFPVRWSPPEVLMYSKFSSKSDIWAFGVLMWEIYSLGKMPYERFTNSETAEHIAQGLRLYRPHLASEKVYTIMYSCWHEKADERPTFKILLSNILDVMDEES
T3 sequence (P53778 whole entry): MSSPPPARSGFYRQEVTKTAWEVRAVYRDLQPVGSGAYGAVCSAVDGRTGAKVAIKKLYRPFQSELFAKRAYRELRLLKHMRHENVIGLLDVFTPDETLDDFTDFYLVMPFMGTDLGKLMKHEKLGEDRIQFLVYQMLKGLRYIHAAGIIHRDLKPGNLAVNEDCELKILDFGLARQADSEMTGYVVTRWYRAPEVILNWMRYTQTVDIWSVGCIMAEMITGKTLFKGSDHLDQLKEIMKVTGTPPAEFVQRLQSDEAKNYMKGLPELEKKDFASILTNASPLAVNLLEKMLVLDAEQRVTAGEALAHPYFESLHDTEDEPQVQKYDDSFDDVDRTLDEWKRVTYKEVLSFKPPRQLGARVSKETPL

In the case of `CCN1CCOc2nc(N3CCOCC3)nc(-c3ccc(NC(=O)OC)cc3)c2C1=O` [Compound A], the IC50 (PKD1) is reported as greater than 30000 nM, the “% inhibition at 10 μM” value (p70S6K) is reported as 59 and the IC50 (p38γ (SAPK3) [1]) is reported as 710 nM. The “% inhibition at 10 μM” value (p38γ (SAPK3) [2]) was 64, the “% inhibition at 10 μM” value (mTOR) was 48 and the IC50 (p38α) was greater than 30000 nM. It also gave an IC50 (p38δ) of 380 nM, an inhibition at 1 µM (CDK5/p25(h)) of -2% and an inhibition at 10 µM (CDK5/p25(h)) of -2%. For the same molecule, the inhibition at 1 µM (GSK3β(h)) was 1%, the inhibition at 10 µM (GSK3β(h)) was 12% and the inhibition at 1 µM (Syk(h)) was 4%. The inhibition at 10 µM (Syk(h)) was 20%, the inhibition at 1 µM (Met(h)) was -16% and the inhibition at 10 µM (Met(h)) was -7%. For the same molecule, the inhibition at 1 µM (JAK3(h)) was 0%, the inhibition at 10 µM (JAK3(h)) was -5% and the inhibition at 1 µM (Hck(h) activated) was -5%. The inhibition at 10 µM (Hck(h) activated) was 5%, the inhibition at 1 µM (cSRC(h)) was -9% and the inhibition at 10 µM (cSRC(h)) was -12%. The inhibition at 1 µM (BTK(h)) was -1%, the inhibition at 10 µM (BTK(h)) was 0% and the inhibition at 1 µM (AMPKα2(h)) was -5%. The inhibition at 10 µM (AMPKα2(h)) was 5%, the inhibition at 1 µM (Pim-1(h)) was -6% and the inhibition at 10 µM (Pim-1(h)) was -7%. The inhibition at 1 µM (Rsk1(h)) was -11%, the inhibition at 10 µM (Rsk1(h)) was 5% and the inhibition at 1 µM (EphB4(h)) was -3%. It also gave an inhibition at 10 µM (EphB4(h)) of 8%.

Source: PMC6658524, “Lysosomal degradation of newly formed insulin granules contributes to β cell failure in diabetes” (Nature Communications, 2019)
